# Assays:
# [1] = tested on: HCT-116 human colorectal carcinoma xenograft tumor; assay: HCT-116 nude mouse xenograft model; assay type: in vivo, BALB/c nude mice; details: for Body weight: tumor-bearing nude mice, D-res 100 mg/kg i.p.
# Excerpt: All animal studies were approved and performed according to Animal Care and Use Guidelines of the Animal Ethics Committee at Hong Kong Baptist University. BALB/c nude mice, SPF class, male, 6-8 weeks old, were purchased from BioLASCO, Taiwan. Before the xenograft experiment, the mice were acclimatized to SPF class laboratory conditions for a week.
# HCT-116 cells in logarithmic growth phase were collected by trypsinization. After centrifugation and rinsing, cells were re-suspended in serum-free DMEM medium at 3×10^7 cells/mL. Nude mice were skin disinfected with 75% medical ethanol, subcutaneously injected with 100 μL of the HCT-116 cell suspension using a 25-G syringe to their left flank. The same procedure was repeated for the tumor cell injection to the right flank.
# Seven days after tumor cell injection, 24 mice with tumor volumes of 32 mm^3 to 178 mm^3 were randomly assigned into 3 groups; the average initial tumor volumes in each group of mice were 78.04±7.76 mm^3 (vehicle, 8 mice), 78.76±9.40 mm^3 (5-FU, 8 mice), 78.01±7.75 mm^3 (D-res, 8 mice) respectively.
# Vehicle solution: 2.5% Ethanol and Cremphor EL (1:1 v/v) dissolved in physiological saline.
# 5-FU solution: 5-FU powder was dissolved in 2.5% Ethanol and Cremphor EL to a concentration of 5 mg/mL.
# D-res solution: Dihydro-resveratrol powder was dissolved in 2.5% Ethanol and Cremphor EL solution to a concentration of 20 mg/mL.
# Vehicle group (n=8): 2.5% Ethanol and Cremphor EL solution was intraperitoneally injected every other day for 21 days.
# 5-FU group (n=8): 5-FU solution was given to mice at 25 mg/kg by intraperitoneal injection every other day for 21 days.
# D-res group (n=8): D-res solution was given to mice at 100 mg/kg by intraperitoneal injection every other day for 21 days. This is equivalent to a dosage of no less than 8.13 mg/kg of bodily weight in human.
# Streptococcus mutans = assay: anti-bacterial growth inhibition, S. mutans; assay type: cell-based; details: Streptococcus mutans, 10 h
# [2] = tested on: human embryonic kidney HEK293 cell line; assay: MTT cell viability assay, HEK293; assay type: cell-based
# Description: The human colorectal carcinoma HCT-116 cell line, human pancreatic ductal adenocarcinoma PANC-1 cell line, human melanoma A375 cell line and human embryonic kidney HEK293 cell line were purchased from the American Type Culture Collection. Cells were cultured in high glucose DMEM growth medium supplemented with 10% fetal bovine serum, penicillin and streptomycin (100 U) in a humidified atmosphere of 5% CO2, 95% air at 37° C. Upon the addition of dihydro-resveratrol (D-res) to the HCT-116, PANC-1, A375 or HEK293 cells seeded at a density of 8000 cells per well in a 96-well plate format, the viability of the testing cells was determined 24 h post treatment using the (3-(4,5-dimethylthiazol-2-yl)-2,5-diphenyltetrazolium bromide) tetrazolium (MTT) reduction assay and expressed as growth inhibition of 50% (GI50, Table 6).
# Streptococcus sobrinus = assay: anti-bacterial growth inhibition, S. sobrinus; assay type: cell-based; details: Streptococcus sobrinus, 10 h
# [3] = tested on: Trichophyton mentagrophytes; assay: anti-fungal growth inhibition, T. mentagrophytes; assay type: cell-based; details: Trichophyton mentagrophytes, 168 h
# [4] = 21-day administration, 100 mg/kg i.p.
# [5] = read-out: Inhibition rate (25 μM)
# [6] = read-out: Inhibition rate (50 μM)
# [7] = read-out: Inhibition rate (100 μM)
compound,measurement,setting,value
"Oc1ccc(CCc2cc(O)cc(O)c2)cc1 [Dihydro-resveratrol, trans-3,5,4′-trihydroxybibenzyl]",effect on body weight of the nude mice,[1]; [4],did not lead to a notable reduction in body weight
same,"growth of xenograft tumor (size, volume, weight) compared to 5-FU",[1]; [4],more sufficiently restrained
same,Tumor Volume (mm^3),"[1]; Day 1 (initial), i.p. every other day, 5-FU 25 mg/kg, D-res 100 mg/kg",78.01 ± 7.75 mm^3
same,Body weight,"[1]; Day 1, 5-FU 25 mg/kg",20.69 ± 0.55 g
same,Tumor Volume (mm^3),"[1]; Day 4, i.p. every other day, 5-FU 25 mg/kg, D-res 100 mg/kg",137.54 ± 14.69 mm^3
same,Body weight,"[1]; Day 4, 5-FU 25 mg/kg",20.76 ± 0.65 g
same,Tumor Volume (mm^3),"[1]; Day 7, i.p. every other day, 5-FU 25 mg/kg, D-res 100 mg/kg",167.58 ± 22.65 mm^3
same,Body weight,"[1]; Day 7, 5-FU 25 mg/kg",20.33 ± 0.9 g
same,Tumor Volume (mm^3),"[1]; Day 10, i.p. every other day, 5-FU 25 mg/kg, D-res 100 mg/kg",273.28 ± 41.5 mm^3
same,Body weight,"[1]; Day 10, 5-FU 25 mg/kg",20.57 ± 0.66 g
same,Tumor Volume (mm^3),"[1]; Day 13, i.p. every other day, 5-FU 25 mg/kg, D-res 100 mg/kg",355.48 ± 78.57 mm^3
same,Body weight,"[1]; Day 13, 5-FU 25 mg/kg",20.53 ± 0.82 g
same,Tumor Volume (mm^3),"[1]; Day 16, i.p. every other day, 5-FU 25 mg/kg, D-res 100 mg/kg",409.35 ± 74.3 mm^3
same,Body weight,"[1]; Day 16, 5-FU 25 mg/kg",20.31 ± 0.88 g
same,Tumor Volume (mm^3),"[1]; Day 19, i.p. every other day, 5-FU 25 mg/kg, D-res 100 mg/kg",585.98 ± 110.96 mm^3
same,Body weight,"[1]; Day 19, 5-FU 25 mg/kg",20.51 ± 0.87 g
same,Tumor Volume (mm^3),"[1]; Day 21, i.p. every other day, 5-FU 25 mg/kg, D-res 100 mg/kg",559.76 ± 100.63 mm^3
same,Body weight,"[1]; Day 21, 5-FU 25 mg/kg",18.79 ± 0.59 g
same,Tumor Volume (mm^3),"[1]; Day 22, i.p. every other day, 5-FU 25 mg/kg, D-res 100 mg/kg",586.92 ± 88.51 mm^3
same,Body weight,"[1]; Day 22, 5-FU 25 mg/kg",20.63 ± 0.99 g
same,Tumor weight,"[1]; treated for 21 days, i.p. every other day, 5-FU 25 mg/kg, D-res 100 mg/kg",0.60 ± 0.11 g
same,inhibition at 25 µM,Streptococcus mutans; [5],6.32%
same,inhibition at 50 µM,Streptococcus mutans; [6],2.34%
same,inhibition at 100 µM,Streptococcus mutans; [7],2.09%
same,GI50,"[2]; Homo sapiens, HEK293 embryonic kidney (serves as normal control), 24 h, MTT",244.1 ± 0.96 µM
same,selectivity implied by GI50 values (carcinoma cells vs HEK293),[2]; Table 6,selectivity towards carcinoma cells
same,inhibition at 25 µM,Streptococcus sobrinus; [5],10.7%
same,inhibition at 50 µM,Streptococcus sobrinus; [6],8.18%
same,inhibition at 100 µM,Streptococcus sobrinus; [7],1.49%
same,inhibition at 25 µM,[3]; [5],4.52%
same,inhibition at 50 µM,[3]; [6],15.3%
same,inhibition at 100 µM,[3]; [7],30.8%

# Source: patent publication US10351500B2, “Method of using of dihydro-resveratrol or its stilbenoid derivatives and/or chemical variants as antimicrobial agents” (Hong Kong Baptist University, priority 2015, dated 2019)
